Data published in patent US11180490B2, “Cyclopropyl urea formyl peptide 2 receptor and formyl peptide 1 receptor agonists” (BRISTOL-MYERS SQUIBB COMPANY, priority 2017, dated 2021).

How the values were obtained:
human FPR1 = molecular target: T1, human FPR1 (Homo sapiens, UniProt P21462); assay: FPR1 cyclic adenosine monophosphate (cAMP) assay; assay type: cell-based; conditions: CHO cells overexpressing human FPR1; inhibition of forskolin-stimulated cAMP production; read-out: hFPR1 cAMP EC50
T1 sequence (P21462 1-350): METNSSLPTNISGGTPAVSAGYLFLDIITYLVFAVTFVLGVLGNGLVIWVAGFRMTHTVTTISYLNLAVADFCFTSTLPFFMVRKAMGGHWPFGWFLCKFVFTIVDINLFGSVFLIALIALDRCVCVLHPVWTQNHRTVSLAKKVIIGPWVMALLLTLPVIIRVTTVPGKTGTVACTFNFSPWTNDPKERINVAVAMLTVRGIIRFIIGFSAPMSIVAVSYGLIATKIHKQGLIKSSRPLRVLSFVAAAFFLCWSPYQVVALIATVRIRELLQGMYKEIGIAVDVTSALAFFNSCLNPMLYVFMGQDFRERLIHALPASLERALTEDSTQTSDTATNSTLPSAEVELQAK
Description: (§1) FPR2 and FPR1 Cyclic Adenosine Monophosphate (cAMP) Assays. A mixture of forskolin (5 μM final for FPR2 or 10 μM final for FPR1) and IBMX (200 μM final) were added to 384-well Proxiplates (Perkin-Elmer) pre-dotted with test compounds in DMSO (1% final) at final concentrations in the range of 1.7 nM to 100 μM. Chinese Hamster Ovary cells (CHO) overexpressing human FPR1 or human FPR2 receptors were cultured in F-12 (Ham's) medium supplemented with 10% qualified FBS, 250 μg/ml zeocin and 300 μg/ml hygromycin (Life Technologies). Reactions were initiated by adding 2,000 human FPR2 cells per well or 4,000 human FPR1 cells per well in Dulbecco's PBS (with calcium and magnesium) (Life Technologies) supplemented with 0.1% BSA (Perkin-Elmer). The reaction mixtures were incubated for 30 min at room temperature. The level of intracellular cAMP was determined using the HTRF HiRange cAMP assay reagent kit (Cisbio) according to manufacturer's instruction. Solutions of cryptate conjugated anti-cAMP and d2 flurorophore-labelled cAMP were made in a supplied lysis buffer separately. Upon completion of the reaction, the cells were lysed with equal volume of the d2-cAMP solution and anti-cAMP solution. After a 1-h room temperature incubation, time-resolved fluorescence intensity was measured using the Envision (Perkin-Elmer) at 400 nm excitation and dual emission at 590 nm and 665 nm. A calibration curve was constructed with an external cAMP standard at concentrations ranging from 1 μM to 0.1 pM by plotting the fluorescent intensity ratio from 665 nm emission to the intensity from the 590 nm emission against cAMP concentrations. The potency and activity of a compound to inhibit cAMP production was then determined by fitting to a 4-parametric logistic equation from a plot of cAMP level versus compound concentrations.

human FPR2 = molecular target: T2, human FPR2 (Homo sapiens, UniProt P25090); assay: FPR2 cyclic adenosine monophosphate (cAMP) assay; assay type: cell-based; conditions: CHO cells overexpressing human FPR2; inhibition of forskolin-stimulated cAMP production; read-out: hFPR2 cAMP2 EC50
T2 sequence (P25090 1-351): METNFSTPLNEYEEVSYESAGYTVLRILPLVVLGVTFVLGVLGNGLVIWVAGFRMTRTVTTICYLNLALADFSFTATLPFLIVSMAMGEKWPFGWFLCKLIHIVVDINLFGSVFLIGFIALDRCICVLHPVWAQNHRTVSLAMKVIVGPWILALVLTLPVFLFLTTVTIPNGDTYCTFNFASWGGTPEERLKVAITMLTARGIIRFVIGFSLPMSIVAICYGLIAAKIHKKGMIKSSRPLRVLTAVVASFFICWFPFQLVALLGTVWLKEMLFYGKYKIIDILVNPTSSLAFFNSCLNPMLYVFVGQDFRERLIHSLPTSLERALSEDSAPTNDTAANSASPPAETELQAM
Description: as §1

EC50 (human FPR1) [nM] | EC50 (human FPR2) [nM] | Structure (SMILES)
430 | 12 | COc1cc(F)c([C@@H]2CNC(=O)[C@H]2NC(=O)NC2(c3ccc4cc(Cl)ccc4n3)CC2)c(F)c1 [Example 53, 3-[1-(6-chloroquinolin-2-yl)cyclopropyl]-1-[(3S,4R)-4-(2,6-difluoro-4-methoxyphenyl)-2-oxopyrrolidin-3-yl]urea]
26 | 1.5 | COc1cc(F)c([C@@H]2CN(CC3CC3)C(=O)[C@H]2NC(=O)NC2(c3cccc(C)n3)CC2)c(F)c1 [Example 94, 1-((3S,4R)-1-(cyclopropylmethyl)-4-(2,6-difluoro-4-methoxyphenyl)-2-oxopyrrolidin-3-yl)-3-(1-(6-methylpyridin-2-yl)cyclopropyl)urea]
820 | 8.3 | COc1cc(F)c([C@@H]2CNC(=O)[C@H]2NC(=O)NC2(c3cccc(Cl)n3)CC2)c(F)c1 [Example 1, 3-[1-(6-chloropyridin-2-yl)cyclopropyl]-1-[(3S,4R)-4-(2,6-difluoro-4-methoxyphenyl)-2-oxopyrrolidin-3-yl]urea]
1500 | 34 | COc1cc(F)c([C@@H]2CNC(=O)[C@H]2NC(=O)NC2(c3ccc4cc(OC)ccc4c3)CC2)c(F)c1 [Example 63, 1-[(3S,4R)-4-(2,6-difluoro-4-methoxyphenyl)-2-oxopyrrolidin-3-yl]-3-[1-(6-methoxynaphthalen-2-yl)cyclopropyl]urea]
66 | 5.7 | COc1cc(F)c([C@@H]2CN(C)C(=O)[C@H]2NC(=O)NC2(c3ccc4ccccc4n3)CC2)c(F)c1 [Example 8, 1-[(3S,4R)-4-(2,6-difluoro-4-methoxyphenyl)-1-methyl-2-oxopyrrolidin-3-yl]-3-[1-(quinolin-2-yl)cyclopropyl]urea]
120 | 2 | COc1cc(F)c([C@@H]2CNC(=O)[C@H]2NC(=O)NC2(c3nc4c(C(F)(F)F)cccc4s3)CC2)c(F)c1 [Example 96, 1-[(3S,4R)-4-(2,6-difluoro-4-methoxyphenyl)-2-oxopyrrolidin-3-yl]-3-{1-[4-(trifluoromethyl)-1,3-benzothiazol-2-yl]cyclopropyl}urea]
19 | 1.7 | CCCN1C[C@@H](c2c(F)cc(OC)cc2F)[C@H](NC(=O)NC2(c3ccc4ccccc4n3)CC2)C1=O [Example 95, 1-[(3S,4R)-4-(2,6-difluoro-4-methoxyphenyl)-2-oxo-1-propylpyrrolidin-3-yl]-3-[1-(quinolin-2-yl)cyclopropyl]urea]
2300 | 49 | COc1cc(F)c([C@@H]2CNC(=O)[C@H]2NC(=O)NC2(c3cccc(C(F)(F)F)c3)CC2)c(F)c1 [Example 19, 1-[(3S,4R)-4-(2,6-difluoro-4-methoxyphenyl)-2-oxopyrrolidin-3-yl]-3-{1-[3-(trifluoro-methyl)phenyl]cyclo-propyl}urea]
660 | 33 | COc1cc(F)c([C@@H]2CNC(=O)[C@H]2NC(=O)NC2(c3ccc(C)cc3)CC2)c(F)c1 [Example 2, 1-[(3S,4R)-4-(2,6-difluoro-4-methoxyphenyl)-2-oxopyrrolidin-3-yl]-3-[1-(4-methylphenyl)cyclopropyl]urea]
150 | 14 | COc1cc(F)c([C@@H]2CN(CC(F)(F)F)C(=O)[C@H]2NC(=O)NC2(c3cccc(C)n3)CC2)c(F)c1 [Example 110, 1-[(3S,4R)-4-(2,6-difluoro-4-methoxyphenyl)-2-oxo-1-(2,2,2-trifluoroethyl)pyrrolidin-3-yl]-3-[1-(6-methylpyridin-2-yl)cyclopropyl]urea]
280 | 25 | COc1cc(F)c([C@@H]2CN(Cc3nnc(C)o3)C(=O)[C@H]2NC(=O)NC2(c3cccc(C)n3)CC2)c(F)c1 [Example 115]
700 | 63 | COc1cc(F)c([C@@H]2CN(CCO)C(=O)[C@H]2NC(=O)NC2(c3ccc4ccccc4n3)CC2)c(F)c1 [Example 67, 1-[(3S,4R)-4-(2,6-difluoro-4-methoxyphenyl)-1-(2-hydroxyethyl)-2-oxopyrrolidin-3-yl]-3-[1-(quinolin-2-yl)cyclopropyl]urea]
1000 | 4 | COc1cc(F)c([C@@H]2CNC(=O)[C@H]2NC(=O)NC2(c3cccc(OCc4ccc5ccccc5c4)c3)CC2)c(F)c1 [Example 131, 1-[(3S,4R)-4-(2,6-difluoro-4-methoxyphenyl)-2-oxopyrrolidin-3-yl]-3-(l-{3-[(naphthalen-2-yl)methoxy]phenyl}cyclo-propyl)urea]
1600 | 12 | COc1cc(F)c([C@@H]2CNC(=O)[C@H]2NC(=O)NC2(c3nc4ccc(C)cc4s3)CC2)c(F)c1 [Example 85, 1-[(3S,4R)-4-(2,6-difluoro-4-methoxyphenyl)-2-oxopyrrolidin-3-yl]-3-[1-(6-methyl-1,3-benzothiazol-2-yl)cyclopropyl]urea]
1000 | 110 | COc1cc(F)c([C@@H]2CNC(=O)[C@H]2NC(=O)NC2(c3ccc4ncccc4n3)CC2)c(F)c1 [Example 4, 1-[(3S,4R)-4-(2,6-difluoro-4-methoxyphenyl)-2-oxopyrrolidin-3-yl]-3-[1-(1,5-naphthyridin-2-yl)cyclopropyl]urea]
270 | 2.3 | COc1cc(F)c([C@@H]2CNC(=O)[C@H]2NC(=O)NC2(c3ccc(Cl)c(C)n3)CC2)c(F)c1 [Example 47, 3-[1-(5-chloro-6-methylpyridin-2-yl)cyclopropyl]-1-[(3S,4R)-4-(2.6-difluoro-4-methoxyphenyl)-2-oxopyrrolidin-3-yl]urea]
200 | 1.7 | COc1cc(F)c([C@@H]2CNC(=O)[C@H]2NC(=O)NC2(c3ccc(C)c(Cl)c3)CC2)c(F)c1 [Example 50, 3-[1-(3-chloro-4-methylphenyl)cyclopropyl]-1-[(3S,4R)-4-(2,6-difluoro-4-methoxyphenyl)-2-oxopyrrolidin-3-yl]urea]
320 | 6.4 | COc1cc(F)c([C@@H]2CNC(=O)[C@H]2NC(=O)NC2(c3ccc4ccccc4n3)CC2)c(F)c1 [Example 26, 1-[(3S,4R)-4-(2,6-difluoro-4-methoxyphenyl)-2-oxopyrrolidin-3-yl]-3-[1-(quinolin-2-yl)cyclopropyl]urea]
140 | 9.7 | COc1ccc([C@@H]2CNC(=O)[C@H]2NC(=O)NC2(c3cccc(Cl)n3)CC2)c(F)c1 [Example 48, 3-[1-(6-chloropyridin-2-yl)cyclopropyl]-1-[(3S,4R)-4-(2-fluoro-4-methoxyphenyl)-2-oxopyrrolidin-3-yl]urea]
